The values that follow come from patent US20110262451A1, “MODULATORS OF ISOVALERYL-COENZYME A DEHYDROGENASE IN THE TREATMENT OF ACNE, OF SEBORRHOEIC DERMATITIS OR OF HYPERSEBORRHOEA” (priority 2008, published 2011).

The structures appear in SMILES notation.

For one assay, the system named is PPARγ. Put plainly: qRT-PCR expression of PPARγ in rat sebaceous gland (epidermal split) after topical PPARgamma agonist. In kind it is in vivo. Conditions: topical 1% in acetone, T = 96 h, female FUZZY rat, relative induction versus carrier group, standardized to 18S. How it is done:
(§1) • Strain: Ico: Hsd: FUZZY-fz • Gender: female • Age: 10 weeks Number per batch: 40 (8 animals per group) Treatment: Route of administration: topical • Compound/batch: PPARgamma agonist (rosiglitazone) • Doses: 1% • Carrier: acetone (001) • Duration 96 hours Method of evaluation: The animals are weighed at the beginning and at the end of the study. Skin biopsies are taken (6 samples of skin excised per rat) in order to analyze the expression of the genes (RNA extraction, reverse transcriptas and real-time PCR). The samples are stored overnight at 4° C. before incubation in 1M sodium bromide (NaBr) for 2 hours at 37° C. After incubation, the samples are separated into epidermis or dermis. The epidermal samples are stored at […] Under these conditions, the sebaceous glands are in the epidermal split. PCRs are carried out, beginning with the cDNAs originating from the epidermal splits containing sebaceous glands from control rats or rats treated with the PPARγ agonist: the mRNA is extracted using a column and quantified. The quality of the mRNAs is measured and is represented by the 18S/28S ratio. The results are standardized with respect to 18S expressed as relative induction versus untreated animals (carrier group). The statistical analysis is obtained using internal software based on a modified Monte Carlo statistical analysis.

Another assay relates to IVD. Put plainly: qRT-PCR expression of IVD in rat sebaceous gland (epidermal split) after topical PPARgamma agonist. The class given is in vivo. Conditions: topical 1% in acetone, T = 96 h, female FUZZY rat, relative induction versus carrier group, standardized to 18S. How it is done: as §1
For orientation: Quantitative PCR measures a nucleic acid by following its amplification.

Assay [1] relates to isovaleryl-coenzyme A dehydrogenase. Conditions: cited from earlier work.

On to `COCCOCOc1ccc2cc(C(=O)N(C)Cc3cccc(-c4ccc(CC5SC(=O)NC5=O)cc4)c3)ccc2c1` (stereo not drawn) [PPARgamma agonist, 6-(2-methoxyethoxy-methoxy)naphthalene-2-carboxylic acid [4′-(2,4-dioxothiazolidin-5-ylmethyl)biphenyl-3-ylmethyl]methyl-amide], for which the “Induction factor (PPARγ)” value with PPARγ stood at 0.11. Moreover, the “Induction factor (IVD)” value in the assay on IVD stood at 0.11.
Regarding `C=C1C[C@@H]1C[C@H](N)C(=O)O` [hypoglycine A], in assay [1], the “Inhibition of isovaleryl-coenzyme A dehydrogenase” value is on record as “inhibitor”.
